# According to patent publication US6340686B1, “Thienopyrimidine compounds, their production and use” (Takeda Chemical Industries, Ltd., priority 1999, dated 2002):
# Legend:
# human GnRH receptor = target: T1, human GnRH receptor (Homo sapiens, UniProt P30968); experiment: 125I-leuprorelin binding inhibition, CHO cell membrane fraction containing human GnRH receptor; conditions: 25° C. for 60 minutes, Hill plot
# T1 construct: expressed in transfected cells; host or cells: CHO (Chinese hamster ovary) cells
# T1 sequence (P30968 1-328): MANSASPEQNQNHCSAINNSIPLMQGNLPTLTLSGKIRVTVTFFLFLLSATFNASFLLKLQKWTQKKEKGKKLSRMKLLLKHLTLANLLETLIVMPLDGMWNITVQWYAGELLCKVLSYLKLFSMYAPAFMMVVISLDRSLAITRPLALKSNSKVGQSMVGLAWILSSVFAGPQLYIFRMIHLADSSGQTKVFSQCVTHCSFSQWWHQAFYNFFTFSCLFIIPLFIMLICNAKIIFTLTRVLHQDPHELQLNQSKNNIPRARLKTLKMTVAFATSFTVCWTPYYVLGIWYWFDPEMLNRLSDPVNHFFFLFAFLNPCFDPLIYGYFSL
# Protocol: To the cell pellet, 10 ml of a cell homogenate buffer (10 mM NaHCO3, 5 mM EDTA, pH 7.5) was added, followed by homogenization using the Polytron homogenizer. […] This precipitate was suspended in 2 ml of an assay buffer and centrifuged at 100,000×g for 1 hour. The membrane fraction recovered as a precipitate was again suspended in 20 ml of the assay buffer, dispensed, and stored at −80° C. before use upon thawing. […] To determine maximum binding quantity, a reaction mixture of 2 μl of 60% DMSO and 10 μl of 38 nM ^125I-leuprorelin was prepared. […] Where the membrane fraction of the CHO with human GnRH receptors expressed was used, the reaction was carried out at 25° C. for 60 minutes. After each reaction, the reaction mixture was aspirated and filtered through a polyethyleneimine-treated Whatman glass filter (GF-F). After this filtration, the radioactivity of ^125I-leuprorelin remaining on the filter paper was measured with a γ-counter. The expression (TB-SB)/(TB-NSB)×100 (where SB=radioactivity with the compound added, TB=maximum bound radioactivity, NSB=nonspecifically bound radioactivity) was calculated to find the binding inhibition rate (%) of each test compound. Furthermore, the inhibition rate was determined by varying the concentration of the test substance and the 50% inhibitory concentration (IC50 value) of the compound was calculated from Hill plot.
# [1] = target: T2, GnRH receptors (rat pituitary anterior lobe membrane fraction) (Rattus norvegicus, UniProt P30969); experiment: 125I-leuprorelin binding inhibition, rat pituitary anterior lobe membrane fraction
# T2 construct: Anterior lobes of the pituitary glands were isolated from forty Wistar rats; from tissue; host or cells: anterior lobes of pituitary glands of male Wistar rats
# T2 sequence (P30969 1-327): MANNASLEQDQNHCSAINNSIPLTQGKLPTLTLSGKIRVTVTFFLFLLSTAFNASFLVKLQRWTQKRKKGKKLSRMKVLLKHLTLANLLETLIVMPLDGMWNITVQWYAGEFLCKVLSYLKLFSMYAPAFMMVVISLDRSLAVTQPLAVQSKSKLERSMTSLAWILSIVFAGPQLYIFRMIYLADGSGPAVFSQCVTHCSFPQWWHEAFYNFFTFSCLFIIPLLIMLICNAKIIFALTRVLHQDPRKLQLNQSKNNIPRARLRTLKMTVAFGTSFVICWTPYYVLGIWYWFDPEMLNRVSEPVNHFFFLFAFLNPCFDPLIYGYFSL
# Protocol: (1) Preparation of ^125I-leuprorelin To a tube containing 10 μl of a 3×10^−4M aqueous solution of leuprorelin and 10 μl of 0.01 mg/ml lactoperoxidase, 10 μl (37MBq) of a solution of Na^125I was added. After stirring, 10 μl of 0.001% H2O2 was added, and a reaction was carried out at room temperature for 20 minutes. By adding 700 μl of a 0.05% TFA (trifluoroacetic acid) solution, the reaction was stopped, followed by purification by reversed-phase HPLC. The HPLC conditions used are shown below. ^125I-leuprorelin was eluted at a retention time of 26 to 27 minutes. […] To determine maximum binding quantity, a reaction mixture of 2 μl of 60% DMSO and 10 μl of 38 nM ^125I-leuprorelin was prepared. […] After this filtration, the radioactivity of ^125I-leuprorelin remaining on the filter paper was measured with a γ-counter. The expression (TB-SB)/(TB-NSB)×100 (where SB=radioactivity with the compound added, TB=maximum bound radioactivity, NSB=nonspecifically bound radioactivity) was calculated to find the binding inhibition rate (%) of each test compound. […]
# plasma LH = experiment: Suppression of plasma LH in castrated monkeys; assay type: in vivo, cynomolgus monkeys (Macaca fascicularis); conditions: castrated male cynomolgus monkeys
# Protocol: The Example compound No. 2 was orally administered to castrated male cynomolgus monkeys (Macaca fascicularis), and plasma LH was quantified. The male cynomolgus monkeys, used at 4 years 9 months to 6 years 3 months of age at time of experimentation, had been castrated more than 3 months prior to the examination. Test animals [n=3] were given 30 mg/kg (3 ml/kg) of the compound suspended in 0.5% methyl cellulose at a final concentration of 1% by oral administration, and control animals [n=2] were given 3 ml/kg of the 0.5% methyl cellulose dispersant alone by oral administration. At 24 hours and immediately before administration and at 2, 4, 6, 8, 24, and 48 hours after administration, blood was collected for heparinized plasma samples via the femoral vein and immediately stored under freezing conditions.
# Plasma LH concentrations were determined by a bioassay using mouse testicular cells. The testicular cells were collected from male BALB/c mice (8 to 9 weeks of age) and washed three times with 1 ml of Dulbecco's modified Eagle medium. (DMEM-H) containing 20 mM HEPES and 0.2% BSA per testis. After incubation at 37° C. for 1 hour, the cells were passed through a nylon mesh filter (70 μm) and dispensed to test tubes at 8×10^5 cells/tube. After the cells were washed twice with 0.4 ml of DMEM-H, 0.4 ml of a DMEM-H solution containing either equine LH (Sigma Company), as the standard LH, or monkey plasma, previously diluted up to 300 fold, as the test sample, was added, followed by a reaction at 37° C. for 2 hours. The testosterone concentration in the culture supernatant was determined by a radioimmunoassay (CIS Diagnostics Company), and the LH concentration in the test monkey plasma was calculated from the standard curve for the standard equine LH.
# The results are given together in FIG. 1. […]
structure (smiles),measurement,setting,value
"CN(Cc1ccccc1)Cc1c(-c2ccc(NC(=O)NCCO)cc2)sc2c1c(=O)n(-c1ccccc1)c(=O)n2Cc1c(F)cccc1F [Example 7, 5-(N-Benzyl-N-methylaminomethyl)-1-(2,6-difluorobenzyl)-6-[4-[3-(2-hydroxyethyl)ureido]phenyl]-3-phenylthieno[2,3-d]pyrimidine-2,4(1H,3H)-dione]",melting point,,220 to 222 °C
CONC(=O)Nc1ccc(-c2sc3c(c2CN2Cc4ccccc4C2)c(=O)n(-c2ccccc2)c(=O)n3Cc2c(F)cccc2F)cc1 [Ex. Compd. No. 4-2],IC50,human GnRH receptor,0.0002 µM
same,IC50,"[1]; 125I-leuprorelin binding, calculated from Hill plot",0.5 µM
same,inhibition at 1 µM,"[1]; read-out: binding inhibition rate (%) Rat (1 μM), 1 μM compound, 125I-leuprorelin, 4° C. for 90 minutes",64%
"CONC(=O)Nc1ccc(-c2sc3c(c2CN(C)Cc2ccccc2)c(=O)n(-c2ccccc2)c(=O)n3Cc2c(F)cccc2F)cc1.Cl [Ex. Compd. No. 2, 5-(N-Benzyl-N-methylaminomethyl)-1-(2,6-difluorobenzyl)-6-[4-(3-methoxyureido)phenyl]-3-phenylthieno[2,3-d]pyrimidine-2,4(1H,3H)-dione hydrochloride]","plasma LH concentration, percentage of the baseline LH concentration immediately before administration","plasma LH; 30 mg/kg oral in 0.5% methyl cellulose, by 24 hours after administration",≤ 20%
same,plasma LH concentration at 48 hours after administration,"plasma LH; 30 mg/kg oral, 48 hours after administration",re-elevation of the plasma LH concentration was noted
same,effect on blood LH concentration,"plasma LH; administered orally, 30 mg/kg",significant depressive effect on blood LH concentration
"CN(Cc1ccccc1)Cc1c(-c2ccc(NC(=O)NO)cc2)sc2c1c(=O)n(-c1ccccc1)c(=O)n2Cc1c(F)cccc1F [Example 5, 5-(N-Benzyl-N-methylaminomethyl)-1-(2,6-difluorobenzyl)-6-[4-(3-hydroxyureido)phenyl]-3-phenylthieno[2,3-d]pyrimidine-2,4(1H,3H)-dione]",melting point,,164 to 165 °C
